Experiments:
[1] = target: West Nile Virus (WNV) NS2B-NS3 protease (West Nile virus (WNV), UniProt P06935); assay: WNV Protease Inhibition Assay; type: biochemical; settings: read-out: WNV Protease IC50; 2 nM protease, 10 μM pERTKR-AMC substrate
Source text: WNV Protease Inhibition Assay

[2] = tested on: ZIKV replicon in Vero cells; assay: ZIKV Replication Inhibition Assay (replicon, NanoLuc); settings: read-out: Zika Replicon EC50; Vero cell line with stable ZIKV replicon, 72 h, Nano-Glo

West Nile Virus (WNV) NS2B-NS3 protease, sequence (P06935 1502-1679 limits assumed): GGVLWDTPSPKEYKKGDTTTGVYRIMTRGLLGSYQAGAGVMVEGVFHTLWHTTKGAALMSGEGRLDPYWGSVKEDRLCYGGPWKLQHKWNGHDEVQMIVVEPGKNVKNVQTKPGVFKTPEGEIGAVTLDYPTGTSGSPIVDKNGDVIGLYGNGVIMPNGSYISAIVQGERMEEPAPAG
West Nile Virus (WNV) NS2B-NS3 protease, sequence (P06935 1371-1501 partner limits assumed): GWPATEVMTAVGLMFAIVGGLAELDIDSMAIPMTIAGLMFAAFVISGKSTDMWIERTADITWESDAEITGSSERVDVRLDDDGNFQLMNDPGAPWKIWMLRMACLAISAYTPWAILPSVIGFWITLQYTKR

Structure (SMILES): Cc1noc(C)c1-c1ccc([C@H](C)[n+]2cc([N-]C(=O)Nc3ccnc(C(F)(F)F)c3)on2)cc1 [Example 191, (S)-(3-(1-(4-(3,5-dimethylisoxazol-4-yl)phenyl)ethyl)-1,2,3-oxadiazol-3-ium-5-yl)((2-(trifluoromethyl)pyridin-4-yl)carbamoyl)amide]
- IC50 [1]: 100 to 1000 nM
- EC50 [2]: 100 to 1000 nM

Source: patent US20250353853A1, “FLAVIVIRUS INHIBITORS” (IRBM S.P.A., priority 2022, published 2025)
